Among the data in US20240083903A1, “ARYL ETHER COMPOUNDS AS TEAD MODULATORS” (Merck Sharp& Dohme LLC, priority 2021, published 2024) are EC50 values, retold here.

SMILES strings stand for the structures.

In the first assay the test system is TEAD Reporter-MCF7 cell line. The assay can be described thus: YAP/TEAD cellular activity assay: inhibition of TEAD-Luc activity in TEAD Reporter-MCF7 cell line. The class given is cell-based, human. Conditions: Homo sapiens, MCF7, 24 h, TEAD Reporter-MCF7 cells, 24 hours incubation with compound, luciferase readout. The procedure: YAP/TEAD Cellular Activity Assay
Quantitation of Compound Potency on the Inhibition of TEAD-Luc Activity in TEAD Reporter-MCF7 Cell Line.
The TEAD Reporter-MCF7 cell line containing the firefly luciferase gene under the control of TEAD responsive elements stably integrated into the human breast cancer cell line was purchased from BPS Bioscience (Cat #60618). The cells were cultured with complete culture medium ([…], 1 mM sodium pyruvate, 10% fetal bovine serum, 10 ng/mL insulin and 400 ug/mL G418 sulfate) prior to the assay. For the assay, the cells were harvested, resuspended in the complete culture medium without G418, and seeded into white solid bottom 384-well cell culture microplates in 25 uL with 10,000 cells per well. The plates were incubated at 37° C. in a CO2 incubator for 20-24 hours and the compounds were then transferred from Echo LDV plates directly into the 384-well white tissue culture plates with an Echo. The plates were incubated at 37° C. in a CO2 incubator for 24 hours and equal volume of ONE-Glo™ EX Luciferase reagent (Promega, Cat #E8150) was added. After mixing on a shaker at room temperature for 10 minutes, the luciferase activity was measured with an Envision. The percentage inhibition and EC50 values of compounds were calculated with Spotfire.
Required Materials • 1. TEAD reporter-MCF-7 Cells (BPS Bioscience, #60618) • 2. Complete Cell Culture Medium (without selection antibiotics) • EMEM 89% (ATCC, #30-2003) • FBS 10% (Hyclone, #SH30088.03) • 1% Non essential amino acids (Gibco, • 1 mM sodium pyruvate (Gibco, • Pen/Strep, 1% (Gibco, #15140-122) • 10 ng/mL insulin (Sigma, #10516) • 3. Complete Cell Culture Medium (with selection antibiotics) • EMEM 89% (ATCC, #30-2003) • F1% Non essential amino acids (Gibco, • 1 mM sodium pyruvate (Gibco, • BS 10% (Hyclone, #SH30088.03) • 10 ng/mL insulin (Sigma, #10516) • 400 ug/mL G418 sulfate (Agilent, #200049-21) • 4. Miscellaneous tissue culture equipment and reagents. • 5. White solid 384-well tissue culture plate (Greiner, Cat #781080) • 6. One Glo EX luciferase assay system (Promega, #E8150)
The following table tabulates the biological data disclosed for the current invention. The biological data was collected using the methodology described above. For each compound, TEAD-Luc EC50 values are listed in nanomolar (nM) concentration units.
Consider `CNS(=O)(=O)c1ccc(Oc2ccc(C(F)(F)F)cc2)c(-c2ccc3c(c2)n(C)c(=O)n3C)c1` [2-8, 3-(1,3-dimethyl-2-oxo-2,3-dihydro-1H-benzimidazol-5-yl)-N-methyl-4-[4-(trifluoromethyl)phenoxy]benzene-1-sulfonamide], for which the EC50 was 198 nM. With `CNS(=O)(=O)c1ccc(Oc2ccc(C(F)(F)F)cc2)c(-c2ccc3c(=O)nc[nH]c3c2)c1` [2-32, N-methyl-3-(4-oxo-1,4-dihydroquinazolin-7-yl)-4-[4-(trifluoromethyl)phenoxy]benzene-1-sulfonamide], the EC50 turned out to be 7570 nM.

For `CNS(=O)(=O)c1ccc(Oc2ccc(C(F)(F)F)cc2)c(-c2cn3ccc(C)cc3n2)c1` [1-31, N-methyl-3-(7-methylimidazo[1,2-a]pyridin-2-yl)-4-[4-(trifluoromethyl)phenoxy]benzene-1-sulfonamide], the EC50 was found to be 40.6 nM.

As to `CNS(=O)(=O)c1ccc(Oc2ccc(C(F)(F)F)cc2)c(-c2ncn3c2CCCC3)c1` [1-37, N-methyl-3-(5,6,7,8-tetrahydroimidazo[1,5-a]pyridin-1-yl)-4-[4-(trifluoromethyl)phenoxy]benzene-1-sulfonamide], the EC50 stood at 414 nM. `CNS(=O)(=O)c1ccc(Oc2ccc(C(F)(F)F)cc2)c(-n2cc3c(n2)CN(C)C3)c1` [6-1, N-Methyl-3-(5-methyl-5,6-dihydropyrrolo [3,4-c]pyrazol-2(4H)-yl)-4-(4-(trifluoromethyl)phenoxy)benzenesulfonamide]: the concentration for a half-maximal effect (EC50) worked out at 6690 nM.

On to `CNS(=O)(=O)c1ccc(Oc2ccc(C(F)(F)F)cc2)c(-c2ccc3ncn(C4CC4)c3c2)c1` [2-12, 3-(1-cyclopropyl-1H-benzimidazol-6-yl)-N-methyl-4-[4-(trifluoromethyl)phenoxy]benzene-1-sulfonamide], for which the concentration giving a half-maximal response (EC50) was 2860 nM. With `CNS(=O)(=O)c1ccc(Oc2ccc(C(F)(F)F)cc2)c(-c2cn3cccc(C)c3n2)c1` [1-33, N-methyl-3-(8-methylimidazo[1,2-a]pyridin-2-yl)-4-[4-(trifluoromethyl)phenoxy]benzene-1-sulfonamide], the half-maximal effective concentration (EC50) was found to be 236 nM.

In the case of `O=S(=O)(NC1CC1)c1ccc(Oc2ccc(C(F)(F)F)cc2)c(-c2cn3c(n2)CCC3)c1` [7-3, N-cyclopropyl-3-(6,7-dihydro-5H-pyrrolo[1,2-a]imidazol-2-yl)-4-(4-(trifluoromethyl)phenoxy)benzenesulfonamide], the EC50 was 17.8 nM. Consider `CNS(=O)(=O)c1ccc(Oc2ccc(C(F)(F)F)cc2)c(-c2cccc3c2OCC(=O)N3)c1` [2-26, N-methyl-3-(3-oxo-3,4-dihydro-2H-1,4-benzoxazin-8-yl)-4-[4-(trifluoromethyl)phenoxy]benzene-1-sulfonamide], for which the EC50 turned out to be 3180 nM. As for `CNS(=O)(=O)c1ccc(Oc2ccc(C(F)(F)F)cc2)c(-c2ccc3scnc3c2)c1` [2-6, 3-(1,3-benzothiazol-5-yl)-N-methyl-4-[4-(trifluoromethyl)phenoxy]benzene-1-sulfonamide], the concentration for a half-maximal effect (EC50) came out at 210 nM. Regarding `CNS(=O)(=O)c1ccc(Oc2cccc(Cl)c2)c(-c2cn3c(n2)CCC3)c1` [4-5, 4-(3-chlorophenoxy)-3-(6,7-dihydro-5H-pyrrolo[1,2-a]imidazol-2-yl)-N-methylbenzene-1-sulfonamide], the half-maximal effective concentration (EC50) is 103 nM. As to `CNS(=O)(=O)c1ccc(Oc2cccc(F)c2)c(-c2cn3c(n2)CCC3)c1` [4-6, 3-(6,7-dihydro-5H-pyrrolo [1,2-a]imidazol-2-yl)-4-(3-fluorophenoxy)-N-methylbenzene-1-sulfonamide], the EC50 was determined as 146 nM.

The same assay, now with this note: TEAD Reporter-MCF7 cells, 24 hours incubation with compound, luciferase readout.
On to `CNS(=O)(=O)c1ccc(Oc2ccc(C(F)(F)F)cc2)c(-c2cn3c(n2)CC(C)C3)c1` (single isomer, unassigned) [1-42, (S)- or (R)-N-methyl-3-(6-methyl-6,7-dihydro-5H-pyrrolo[1,2-a]imidazol-2-yl)-4-[4-(trifluoromethyl)phenoxy]benzene-1-sulfonamide], for which the concentration for a half-maximal effect (EC50) was 6.4 nM.

By EC50 is commonly meant the concentration at which the effect is half-maximal.
